Entries after “also recorded” stand apart in the source; their conditions may differ.
Tested on: HCC1806 cells
Experiment: TMT MS quantitative proteomics of live cells treated with FragTAC probes (HCC1806)
Format: cell-based, Homo Sapiens
Settings: for Proteins targeted (downregulated) by FragTAC probe: value = downregulated protein; for Downregulated proteins targeted by FragTAC probes (protein listed for the probe code): cell line not given
Protocol: Mammalian cell culture: MDA-MB-231 cells (ATCC) were maintained in DMEM supplemented with 10% (v/v) fetal bovine serum (FBS), 1% (v/v) penicillin/streptomycin, and 2 mM glutamine. HCC1806 cells (ATCC) were maintained in RPMI supplemented with 10% (v/v) fetal bovine serum (FBS), 1% (v/v) penicillin/streptomycin, and 2 mM glutamine. All cell lines were grown at 37° C. in a humidified 5% CO2 atmosphere.
Treatment of Live Cells with FragTAC Probes: Separate 6 cm (for gel-based analyses) or 10 cm (for MS-based analyses) dishes of MDA-MB-231 cells or HCC1806 cells were grown to 80-95% confluency with DMEM media and RPMI media respectively. The growth medium was aspirated, and the cells were washed with Dulbecco's phosphate buffered saline (DPBS). The cells were incubated with serum-free media containing fragment probes (200 μM) or control probes (200 μM) for 6 hours at 37° C. under a 5% CO2 atmosphere. The cultures were scraped, washed with cold DPBS, and collected into 15 mL centrifuge tubes, then transferred to 1.5 mL Eppendorf tubes. The cell suspensions were centrifuged (1,400 g, 3 min) and the pellets were stored at −80° C. until the next stage of processing.
Sample preparation for TMT MS Quantitative Proteomics: For treatment of cell lysates, cells were collected, cell pellets were resuspended in 100 μL DPBS containing 1× Halt protease inhibitor cocktail, and lysed by sonication (15 ms on, 40 ms off, 15% amplitude, 1 s total). Protein concentrations were normalized (2 mg/mL in 100 μL with cold DPBS) using the Lowry Protein Assay (Pierce). Urea (48 mg) was weighed for each sample in 2 mL LoBind Eppendorf tubes and cell lysates (100 μL=200 μg) were added (final urea concentration=8 M). Pellets were resuspended in a freshly prepared 1:1 solution (50 μL) TCEP (200 mM in DPBS) and K2CO3 (600 mM in DPBS) and incubated (30 min, 37° C.) while shaking. After reaction, a solution of freshly prepared iodoacetamide (70 μL, 400 mM in DPBS) was added and incubated for 30 min at room temperature while protected from light. After reaction, 1.8 mL of cold 3:1:2 MeOH/CHCl3/H2O solution was added to each tube, and the samples were centrifuged (10,000×g, 10 min, 4° C.), forming a disc. The supernatant was carefully removed, MeOH (600 μL) was added, samples were centrifuged as previously described and the supernatant was removed. Cell pellets were resuspended in TEAB (160 μL, 100 mM, pH 8.5) and sonicated as described previously. Endoproteinase LysC (20 μL, ½ vial, 10 μg dissolved in 220 μL of 100 mM TEAB pH 8.5) was added to each and incubated at 37° C. for 2 h with shaking. Sequencing-grade modified porcine trypsin (20 μL, 1 vial, 20 μg dissolved in 220 μL of 100 mM TEAB pH 8.5), a solution of Protease Max (2 μL, 1% (w/v) in 100 mM TEAB pH 8.5) and a solution of CaCl2) (2 μL, 100 mM) were added to the samples and incubated at 37° C. overnight (14 h) with shaking. The digest was separated by centrifugation (12,000×g, 10 min, 4° C.). Peptide concentration was determined using Pierce Quantitative Fluorometric Peptide Assay Kit (Thermo Fisher Scientific, 23290) according to manufacturer's instructions. MS-grade acetonitrile (12.5 μL) was added to each and samples were labeled with respective TMT 10 plex isotope (8 μL, 20 μg/μL) for 1 h with occasional vortexing at RT. To quench, hydroxylamine (3 μL, 5% v/v) was added to each sample, vortexed, and incubated for 15 min at RT. Formic acid (5 μL) was added to each tube to acidify and the samples were dried under vacuum centrifugation. The samples were combined by redissolving the contents of one tube in a solution of trifluoroacetic acid (TFA, 400 μL, 0.1% in water) and transferred into each sample until all samples were redissolved. The stepwise process was repeated with formic acid (Buffer A, 200 μL, 0.1% in water) for a final volume of 600 μL. […]

[1] = protein with 2 unique peptides or more, depleted 2-fold or more relative to DMSO control (P value <0.05)
[2] = TMT proteomics, targets with 2 unique peptides or more and depleted 2-fold or more relative to DMSO control (P value <0.05)

Row | Structure (SMILES) | Proteins targeted (downregulated) by FragTAC probe [1] | Downregulated proteins targeted by FragTAC probes (protein listed for the probe code) [2] | Proteins targeted (downregulated) by FragTAC probe [2]
1 | Cc1ncsc1-c1ccc(CNC(=O)[C@@H]2C[C@@H](O)CN2C(=O)[C@@H](NC(=O)CCOCCOCCC(=O)N2CCN(C(c3ccccc3)c3ccccc3)CC2)C(C)(C)C)cc1 [LPC020, (2S,4R)-1-((S)-2-(3-(2-(3-(4-benzhydrylpiperazin-1-yl)-3-oxopropoxy)ethoxy)propanamido)-3,3-dimethylbutanoyl)-4-hydroxy-N-(4-(4-methylthiazol-5-yl)benzyl)pyrrolidine-2-carboxamide] | YIPF3 and ZC3H13 and ZC3HC1 and ZFR and ZMYM4 and ZNF638 and ZNF830 |  | 
2 | Cc1ncsc1-c1ccc(CNC(=O)[C@@H]2C[C@@H](O)CN2C(=O)[C@@H](NC(=O)CCOCCOCCC(=O)NCCc2ccc3c(c2)NC(=O)CCC3)C(C)(C)C)cc1 [LPC034, (2S,4R)-1-((S)-2-(tert-butyl)-4,13-dioxo-16-(2-oxo-2,3,4,5-tetrahydro-1H-benzo[b]azepin-8-yl)-7,10-dioxa-3,14-diazahexadecanoyl)-4-hydroxy-N-(4-(4-methylthiazol-5-yl)benzyl)pyrrolidine-2-carboxamide] |  | KRT10 and KRT2 | 
3 | Cc1ncsc1-c1ccc(CNC(=O)[C@@H]2C[C@@H](O)CN2C(=O)[C@@H](NC(=O)CCOCCOCCOCCC(=O)NCCc2cn(Cc3ccccc3)c3ccccc23)C(C)(C)C)cc1 [IF-063, (2S,4R)-1-((S)-19-(1-benzyl-1H-indol-3-yl)-2-(tert-butyl)-4,16-dioxo-7,10,13-trioxa-3,17-diazanonadecanoyl)-4-hydroxy-N-(4-(4-methylthiazol-5-yl)benzyl)pyrrolidine-2-carboxamide] |  |  | TMBIM6
4 | Cc1ncsc1-c1ccc(CNC(=O)[C@@H]2C[C@@H](O)CN2C(=O)[C@@H](NC(=O)CCOCCOCCOCCC(=O)NC2=NC(c3ccccc3)c3ccccc3NC2=O)C(C)(C)C)cc1 (stereo partly drawn) [IF-065, (2S,4R)-1-((2S)-2-(tert-butyl)-4,16-dioxo-16-((2-oxo-5-phenyl-2,5-dihydro-1H-benzo[e][1,4]diazepin-3-yl)amino)-7,10,13-trioxa-3-azahexadecanoyl)-4-hydroxy-N-(4-(4-methylthiazol-5-yl)benzyl)pyrrolidine-2-carboxamide] |  | BRD2 | TMBIM6
5 | Cc1ncsc1-c1ccc(CNC(=O)[C@@H]2C[C@@H](O)CN2C(=O)[C@@H](NC(=O)CCOCCOCCC(=O)NCCC(c2ccccc2)c2ccccc2)C(C)(C)C)cc1 [LPC022, (2S,4R)-1-((S)-2-(tert-butyl)-4,13-dioxo-17,17-diphenyl-7,10-dioxa-3,14-diazaheptadecanoyl)-4-hydroxy-N-(4-(4-methylthiazol-5-yl)benzyl)pyrrolidine-2-carboxamide] | ZFR and ZMYM4 |  | 
6 | Cc1ncsc1-c1ccc(CNC(=O)[C@@H]2C[C@@H](O)CN2C(=O)[C@@H](NC(=O)CCOCCOCCOCCC(=O)N2CCN(C(c3ccccc3)c3ccccc3)C[C@@H]2c2ccccc2)C(C)(C)C)cc1 [CMC-6-123, (2S,4R)-1-((S)-16-((S)-4-benzhydryl-2-phenylpiperazin-1-yl)-2-(tert-butyl)-4,16-dioxo-7,10,13-trioxa-3-azahexadecanoyl)-4-hydroxy-N-(4-(4-methylthiazol-5-yl)benzyl)pyrrolidine-2-carboxamide] | ZBTB1; also recorded: ZNF217 |  | 
7 | Cc1ncsc1-c1ccc(CNC(=O)[C@@H]2C[C@@H](O)CN2C(=O)[C@@H](NC(=O)CCOCCOCCC(=O)N[C@H]2CCCc3ccccc32)C(C)(C)C)cc1 [LPC049, (2S,4R)-1-((S)-3,3-dimethyl-2-(3-(2-(3-oxo-3-(((S)-1,2,3,4-tetrahydronaphthalen-1-yl)amino)propoxy)ethoxy)propanamido)butanoyl)-4-hydroxy-N-(4-(4-methylthiazol-5-yl)benzyl)pyrrolidine-2-carboxamide] |  |  | TMBIM6; also recorded: TOR4A
8 | Cc1ccc(S(=O)(=O)N2CCN(C(=O)CCCCC(=O)N[C@H](C(=O)N3C[C@H](O)C[C@H]3C(=O)NCc3ccc(-c4scnc4C)cc3)C(C)(C)C)CC2)cc1 [IF-080, (2S,4R)-1-((S)-3,3-dimethyl-2-(6-oxo-6-(4-tosylpiperazin-1-yl)hexanamido)butanoyl)-4-hydroxy-N-(4-(4-methylthiazol-5-yl)benzyl)pyrrolidine-2-carboxamide] | ZBTB11 | CTSZ and INCENP and KIF20A and KIF22 and ANLN | PRC1 and RACGAP1 and TPX2 and TXNIP and UHRF1
9 | Cc1ncsc1-c1ccc(CNC(=O)[C@@H]2C[C@@H](O)CN2C(=O)[C@@H](NC(=O)CCOCCC(=O)N2CCN(C(c3ccccc3)c3ccccc3)CC2)C(C)(C)C)cc1 [IF-049, (2S,4R)-1-((S)-2-(3-(3-(4-benzhydrylpiperazin-1-yl)-3-oxopropoxy)propanamido)-3,3-dimethylbutanoyl)-4-hydroxy-N-(4-(4-methylthiazol-5-yl)benzyl)pyrrolidine-2-carboxamide] | YIPF3; also recorded: YLPM1; also recorded: ZNF185 |  | 
10 | Cc1ncsc1-c1ccc(CNC(=O)[C@@H]2C[C@@H](O)CN2C(=O)[C@@H](NC(=O)CCOCCOCCOCCNC(=O)c2[nH]c3ccc(Cl)cc3c2-c2ccccc2)C(C)(C)C)cc1 [IF-073, 5-chloro-N-((S)-14-((2S,4R)-4-hydroxy-2-((4-(4-methylthiazol-5-yl)benzyl)carbamoyl)pyrrolidine-1-carbonyl)-15,15-dimethyl-12-oxo-3,6,9-trioxa-13-azahexadecyl)-3-phenyl-1H-indole-2-carboxamide] |  | CYP1B1 and FAM177A1 and GHITM and LGMN | NPC2 and PCLAF and RPLP1 and SETX and TXNIP
11 | CCn1c2ccccc2c2ccc(CN(C(=O)CCOCCOCCOCCC(=O)N[C@H](C(=O)N3C[C@H](O)C[C@H]3C(=O)NCc3ccc(-c4scnc4C)cc3)C(C)(C)C)C3CCCC3)cc21 [IF-062, (2S,4R)-1-((S)-17-(tert-butyl)-2-cyclopentyl-1-(9-ethyl-9H-carbazol-2-yl)-3,15-dioxo-6,9,12-trioxa-2,16-diazaoctadecan-18-oyl)-4-hydroxy-N-(4-(4-methylthiazol-5-yl)benzyl)pyrrolidine-2-carboxamide] |  | GHITM | 
12 | Cc1ncsc1-c1ccc(CNC(=O)[C@@H]2C[C@@H](O)CN2C(=O)[C@@H](NC(=O)CCOCCOCCOCCC(=O)N2CCCC2c2noc(Cc3ccc(Br)cc3)n2)C(C)(C)C)cc1 (stereo partly drawn) [IF-064, (2S,4R)-1-((2S)-16-(2-(5-(4-bromobenzyl)-1,2,4-oxadiazol-3-yl)pyrrolidin-1-yl)-2-(tert-butyl)-4,16-dioxo-7,10,13-trioxa-3-azahexadecanoyl)-4-hydroxy-N-(4-(4-methylthiazol-5-yl)benzyl)pyrrolidine-2-carboxamide] |  | GHITM | 
